This is an account of results in ChEMBL document CHEMBL4052801, “Design, synthesis and anticancer activity of N-(1-(4-(dibenzo[b,f][1,4]thiazepin-11-yl)piperazin-1-yl)-1-oxo-3-phenylpropan-2-yl derivatives” (Bioorg Med Chem Lett, 2017).

The subject of one assay is MDA-MB-231. Briefly: Cytotoxicity against human MDA-MB-231 cells after 24 hrs by MTT assay. Type of assay: functional, cell-based. The settings on record: MDA-MB-231, 24 h.
In the next assay the test system is COLO 205. Briefly: Cytotoxicity against human COLO205 cells after 24 hrs by MTT assay. It counts as functional, cell-based. To be noted: COLO 205, 24 h.
The subject of the next assay is K562. Briefly: Cytotoxicity against human K562 cells after 24 hrs by MTT assay. It counts as functional, cell-based. The settings on record: K562, 24 h.
In assay [1] the target is T1, NAD-dependent protein deacetylase sirtuin-1 (Homo sapiens) (UniProt Q96EB6).
T1 sequence (whole entry): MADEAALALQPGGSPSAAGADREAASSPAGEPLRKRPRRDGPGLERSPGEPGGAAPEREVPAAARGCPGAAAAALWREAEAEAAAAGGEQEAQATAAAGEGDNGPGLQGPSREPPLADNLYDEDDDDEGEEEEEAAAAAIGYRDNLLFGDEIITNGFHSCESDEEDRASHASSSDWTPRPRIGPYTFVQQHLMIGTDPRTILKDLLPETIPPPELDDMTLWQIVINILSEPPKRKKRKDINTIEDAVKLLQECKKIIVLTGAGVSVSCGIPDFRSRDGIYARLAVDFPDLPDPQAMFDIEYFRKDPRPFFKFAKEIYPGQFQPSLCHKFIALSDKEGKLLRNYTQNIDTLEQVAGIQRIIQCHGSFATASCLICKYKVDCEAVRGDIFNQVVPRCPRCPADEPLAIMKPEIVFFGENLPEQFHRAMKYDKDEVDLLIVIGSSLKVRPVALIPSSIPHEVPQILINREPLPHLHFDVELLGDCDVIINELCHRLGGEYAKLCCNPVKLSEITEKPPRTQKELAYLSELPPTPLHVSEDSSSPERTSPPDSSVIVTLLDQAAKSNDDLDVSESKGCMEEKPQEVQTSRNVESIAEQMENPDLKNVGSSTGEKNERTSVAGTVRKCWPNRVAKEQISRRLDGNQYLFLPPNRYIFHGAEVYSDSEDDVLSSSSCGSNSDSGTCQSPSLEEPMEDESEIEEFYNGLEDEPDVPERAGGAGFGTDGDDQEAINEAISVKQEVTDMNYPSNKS
Briefly: Inhibition of human Sirt1 at 10 uM using fluorophore-labelled peptide as substrate measured after 15 mins by fluorescence assay relative to control.

For `CS(=O)(=O)c1ccc(CC(=O)NC(Cc2ccccc2)C(=O)N2CCN(C3=Nc4ccccc4Sc4ccccc43)CC2)cc1` (configuration not stated), the IC50 stood at 56 µM in the assay on MDA-MB-231, 32 µM with COLO 205 and 28 µM with K562.

As to `O=C(NC(Cc1ccccc1)C(=O)N1CCN(C2=Nc3ccccc3Sc3ccccc32)CC1)c1ccc(OC(F)F)cc1` (configuration not stated), the concentration for half-maximal inhibition (IC50) stood at 39 µM in the assay on MDA-MB-231, 10 µM with COLO 205 and 12 µM with K562. This compound had an inhibition in assay [1] of 71%.

Consider `Cc1ccc(C(=O)NC(Cc2ccccc2)C(=O)N2CCN(C3=Nc4ccccc4Sc4ccccc43)CC2)cc1I` (configuration not stated), for which the IC50 was 59 µM in the assay on MDA-MB-231, 45 µM in the assay on COLO 205 and 36 µM in the assay on K562.

As to `Cc1ccc(C(=O)NC(Cc2ccccc2)C(=O)N2CCN(C3=Nc4ccccc4Sc4ccccc43)CC2)cn1` (configuration not stated), the IC50 in the assay with MDA-MB-231 was 54 µM; with COLO 205 it was 34 µM; in the assay on K562, 39 µM.

As for `O=C(NC(Cc1ccccc1)C(=O)N1CCN(C2=Nc3ccccc3Sc3ccccc32)CC1)c1ccc(I)cc1` (configuration not stated), the IC50 with MDA-MB-231 is 55 µM; with COLO 205, 28 µM; in the assay on K562 it was 26 µM.

Turning to `CCN(CC)CCNC(=O)c1c(C)[nH]c(/C=C2\C(=O)Nc3ccc(F)cc32)c1C` [SUNITINIB], the values for the IC50 in the assay on MDA-MB-231, in the assay with COLO 205 and with K562 were 32 µM, 8 µM and 14 µM, respectively.

With `COC(=O)CCCC(=O)NC(Cc1ccccc1)C(=O)N1CCN(C2=Nc3ccccc3Sc3ccccc32)CC1` (configuration not stated), the results for the half-maximal inhibitory concentration (IC50) in the assay with MDA-MB-231, in the assay with COLO 205 and in the assay with K562 were 64 µM, 28 µM and 19 µM, respectively.

For the compound `CCOC(=O)CCCC(=O)NC(Cc1ccccc1)C(=O)N1CCN(C2=Nc3ccccc3Sc3ccccc32)CC1` (configuration not stated), the IC50 in the assay on MDA-MB-231 worked out at 48 µM; in the assay with COLO 205, 36 µM; in the assay with K562 it was 20 µM.

On to `O=C(CCc1cccc(Cl)c1)NC(Cc1ccccc1)C(=O)N1CCN(C2=Nc3ccccc3Sc3ccccc32)CC1` (configuration not stated), for which the IC50 is 59 µM with MDA-MB-231, 16 µM in the assay with COLO 205 and 27 µM with K562.

In the case of `CCc1ccc(C(=O)NC(Cc2ccccc2)C(=O)N2CCN(C3=Nc4ccccc4Sc4ccccc43)CC2)cc1` (configuration not stated), the IC50 with MDA-MB-231 turned out to be 44 µM; in the assay on COLO 205 it was 25 µM; in the assay on K562 it was 21 µM.

In the case of `O=C(NC(Cc1ccccc1)C(=O)N1CCN(C2=Nc3ccccc3Sc3ccccc32)CC1)c1ccoc1` (configuration not stated), the IC50 was found to be 37 µM in the assay with MDA-MB-231, 14 µM in the assay on COLO 205 and 17 µM in the assay with K562. In assay [1], this compound had an inhibition of 51%.

For the compound `O=C(Cc1ccc2c(c1)OCO2)NC(Cc1ccccc1)C(=O)N1CCN(C2=Nc3ccccc3Sc3ccccc32)CC1` (configuration not stated), the concentration for half-maximal inhibition (IC50) with MDA-MB-231 was determined as 52 µM; in the assay with COLO 205 it was 24 µM; with K562, 35 µM.

Consider `CC(C)(C(=O)NC(Cc1ccccc1)C(=O)N1CCN(C2=Nc3ccccc3Sc3ccccc32)CC1)c1ccc(C(=O)C2CC2)cc1` (configuration not stated), for which the IC50 in the assay with MDA-MB-231 is 34 µM; in the assay with COLO 205, 17 µM; in the assay with K562, 14 µM. In assay [1], this compound registered an inhibition of 44%.

For `Cc1ccc(C(=O)NC(Cc2ccccc2)C(=O)N2CCN(C3=Nc4ccccc4Sc4ccccc43)CC2)c(C)c1` (configuration not stated), the half-maximal inhibitory concentration (IC50) came to 37 µM with MDA-MB-231, 40 µM in the assay on COLO 205 and 35 µM with K562.

Regarding `Cc1ccc(C)c(C(=O)NC(Cc2ccccc2)C(=O)N2CCN(C3=Nc4ccccc4Sc4ccccc43)CC2)c1` (configuration not stated), the IC50 with MDA-MB-231 was 34 µM; in the assay with COLO 205, 12 µM; with K562 it was 16 µM. Further, in assay [1], the inhibition stood at 54%.

Regarding `O=C(NC(Cc1ccccc1)C(=O)N1CCN(C2=Nc3ccccc3Sc3ccccc32)CC1)c1cnccn1` (configuration not stated), the results for the IC50 with MDA-MB-231, in the assay on COLO 205 and in the assay with K562 were 38 µM, 15 µM and 16 µM, respectively. For the same compound, the inhibition in assay [1] came to 62%.

For the compound `Cc1ccc(Br)cc1C(=O)NC(Cc1ccccc1)C(=O)N1CCN(C2=Nc3ccccc3Sc3ccccc32)CC1` (configuration not stated), the results for the IC50 with MDA-MB-231, in the assay with COLO 205 and in the assay on K562 were 49 µM, 16 µM and 27 µM, respectively.

For the compound `N#Cc1ccc(C(=O)NC(Cc2ccccc2)C(=O)N2CCN(C3=Nc4ccccc4Sc4ccccc43)CC2)cc1` (configuration not stated), the figures for the IC50 with MDA-MB-231, in the assay with COLO 205 and with K562 were 61 µM, 29 µM and 24 µM, respectively.

On to `CC(=O)CCCC(=O)NC(Cc1ccccc1)C(=O)N1CCN(C2=Nc3ccccc3Sc3ccccc32)CC1` (configuration not stated), for which the IC50 with MDA-MB-231 worked out at 52 µM; with COLO 205, 33 µM; with K562, 32 µM.
